Here are results for 5 compounds from US5591714A, “Derivatives of A82846” (priority 1994, dated 1997).

Converted amounts (≈) assume the structure as drawn.

The test system of one assay is Staphylococcus aureus. The experiment in a line: In vivo activity, experimentally infected mice (ED50). To be noted: Staphylococcus aureus infection; doses administered subcutaneously to mice 1 and 4 hours postinfection.
In assay [1] the test system is Streptococcus pneumoniae Park 1. The assay is classed as cell-based. How it is done: (§1) The formula I compounds have in vitro and in vivo activity against Gram-positive pathogenic bacteria. The MIC's were determined using a standard agar-dilution assays.
The test system of assay [2] is Staphylococcus aureus S13E. The format is cell-based. How it is done:
as §1

Assay [3] has as its system Enterococcus faecalis 2041. Nature of the assay: MIC, standard agar-dilution assay. The format is cell-based. How it is done: as §1
^c Formerly Streptococcus faecalis 2041

In another assay the test system is Streptococcus pneumoniae. The experiment in a line: In vivo activity, experimentally infected mice (ED50). The conditions noted are these: Streptococcus pneumoniae infection; doses administered subcutaneously to mice 1 and 4 hours postinfection.
For the next assay, the system named is Enterococcus faecium X66. The experiment in a line: MIC, standard agar-dilution assay. The format is cell-based. As for the experimental part: as §1
^b Formerly Streptococcus faecium X66

The next assay has as its system Escherichia coli EC14. The experiment in a line: MIC, standard agar-dilution assay. The assay is classed as cell-based. As for the experimental part: as §1
In another assay the test system is Escherichia coli TEM. The experiment in a line: MIC, standard agar-dilution assay. The assay is classed as cell-based. How it is done: as §1
The test system of assay [4] is Streptococcus pyogenes C203. Nature of the assay: MIC, standard agar-dilution assay. The assay is classed as cell-based. As for the experimental part:
as §1

Assay [5] deals with Klebsiella pneumoniae X26. Nature of the assay: MIC, standard agar-dilution assay. The assay is classed as cell-based. As for the experimental part: as §1
The subject of assay [6] is Staphylococcus aureus NRRL X1.1. The experiment in a line: MIC, standard agar-dilution assay. The format is cell-based. As for the experimental part:
as §1

Assay [7] deals with Staphylococcus aureus X400. Nature of the assay: MIC, standard agar-dilution assay. The assay is classed as cell-based. As for the experimental part:
as §1

The test system of assay [8] is Klebsiella pneumoniae KAE. The experiment in a line: MIC, standard agar-dilution assay. The assay is classed as cell-based. As for the experimental part: as §1
The next assay concerns Escherichia coli N10. Nature of the assay: MIC, standard agar-dilution assay. The format is cell-based. How it is done:
as §1

In assay [9] the test system is Haemophilus influenzae 76. Nature of the assay: MIC, standard agar-dilution assay. The format is cell-based. As for the experimental part: as §1
Assay [10] concerns Staphylococcus aureus V41. The experiment in a line: MIC, standard agar-dilution assay. The format is cell-based. As for the experimental part:
as §1

Assay [11] relates to Staphylococcus epidermidis EPI270. Nature of the assay: MIC, standard agar-dilution assay. The format is cell-based. As for the experimental part: as §1
Assay [12] deals with Klebsiella pneumoniae X68. The experiment in a line: MIC, standard agar-dilution assay. The assay is classed as cell-based. As for the experimental part: as §1
Assay [13] has as its system Haemophilus influenzae C.L. The experiment in a line: MIC, standard agar-dilution assay. The format is cell-based. As for the experimental part:
as §1

For assay [14], the system named is Staphylococcus epidermidis 222. Nature of the assay: MIC, standard agar-dilution assay. The format is cell-based. How it is done:
as §1

The next assay has as its system Streptococcus pyogenes. The experiment in a line: In vivo activity, experimentally infected mice (ED50). To be noted: Streptococcus pyogenes infection; doses administered subcutaneously to mice 1 and 4 hours postinfection.

With `CNC(CC(C)C)C(=O)NC1C(=O)NC(CC(N)=O)C(=O)NC2C(=O)NC3C(=O)NC(C(=O)NC(C(=O)O)c4cc(O)cc(O)c4-c4cc3ccc4O)C(OC3CC(C)(N)C(O)C(C)O3)c3ccc(c(Cl)c3)Oc3cc2cc(c3OC2OC(CO)C(O)C(O)C2OC2CC(C)(NCc3ccccc3)C(O)C(C)O2)Oc2ccc(cc2Cl)C1O` (stereo not drawn) [Compound 51], the ED50 in the assay on Staphylococcus aureus was determined as 0.34 mg/kg/2; in the assay on Streptococcus pneumoniae, 0.35 mg/kg/2; in the assay on Streptococcus pyogenes it was 0.16 mg/kg/2. In addition, the MIC entry is “.125 µg/mL” in assay [1]; “.25 µg/mL” in assay [2]; “.5 µg/mL” in assay [3]; “.25 µg/mL” against Enterococcus faecium X66; above 128 µg/mL against Escherichia coli EC14; above 128 µg/mL against Escherichia coli TEM. Further, the MIC result was “.25 µg/mL” in [4]; above 128 µg/mL in [5]; “.25 µg/mL” in [6]; “.5 µg/mL” in [7]; above 128 µg/mL in assay [8]; above 128 µg/mL in the assay with Escherichia coli N10. For the same compound, the MIC in [9] was above 128 µg/mL; in assay [10] it was “.5 µg/mL”; in assay [11], 1 µg/mL (≈ 0.594 µM); in [12] it was above 128 µg/mL; in assay [13] it was above 128 µg/mL; in assay [14], “.5 µg/mL”.
For `CNC(CC(C)C)C(=O)NC1C(=O)NC(CC(N)=O)C(=O)NC2C(=O)NC3C(=O)NC(C(=O)NC(C(=O)O)c4cc(O)cc(O)c4-c4cc3ccc4O)C(OC3CC(C)(NCc4ccccc4)C(O)C(C)O3)c3ccc(cc3)Oc3cc2cc(c3OC2OC(CO)C(O)C(O)C2O)Oc2ccc(cc2Cl)C1O` (stereo not drawn) [Compound 70], the ED50 was determined as 4.10 mg/kg/2 in the assay with Staphylococcus aureus, 3.76 mg/kg/2 in the assay with Streptococcus pneumoniae and 2.38 mg/kg/2 in the assay with Streptococcus pyogenes. For the same compound, the MIC was 2 µg/mL (≈ 1.33 µM) in [1]; 2 µg/mL (≈ 1.33 µM) in assay [2]; 2 µg/mL (≈ 1.33 µM) in assay [3]; 2 µg/mL (≈ 1.33 µM) with Enterococcus faecium X66; above 128 µg/mL against Escherichia coli EC14; above 128 µg/mL in the assay with Escherichia coli TEM. Further, the MIC in [4] is 2 µg/mL (≈ 1.33 µM); in assay [5], above 128 µg/mL; in [6], 2 µg/mL (≈ 1.33 µM); in assay [7] it was 2 µg/mL (≈ 1.33 µM); in assay [8] it was above 128 µg/mL; against Escherichia coli N10 it was above 128 µg/mL. Further, the MIC in [9] was above 128 µg/mL; in [10], 2 µg/mL (≈ 1.33 µM); in assay [11], “.5 µg/mL”; in assay [12], above 128 µg/mL; in assay [13], above 128 µg/mL; in [14], 2 µg/mL (≈ 1.33 µM).
In the case of `CNC(CC(C)C)C(=O)NC1C(=O)NC(CC(N)=O)C(=O)NC2C(=O)NC3C(=O)NC(C(=O)NC(C(=O)O)c4cc(O)cc(O)c4-c4cc3ccc4O)C(OC3CC(C)(NCc4ccccc4)C(O)C(C)O3)c3ccc(cc3)Oc3cc2cc(c3O)Oc2ccc(cc2Cl)C1O` (stereo not drawn) [Compound 73], the ED50 in the assay with Staphylococcus aureus was above 8.0 mg/kg/2; with Streptococcus pneumoniae it was above 8.0 mg/kg/2; with Streptococcus pyogenes, 7.30 mg/kg/2. In addition, the MIC was 1 µg/mL (≈ 0.745 µM) in [1]; 1 µg/mL (≈ 0.745 µM) in [2]; 2 µg/mL (≈ 1.49 µM) in assay [3]; 1 µg/mL (≈ 0.745 µM) against Enterococcus faecium X66; above 128 µg/mL in the assay on Escherichia coli EC14; above 128 µg/mL in the assay on Escherichia coli TEM. The MIC in assay [4] is 1 µg/mL (≈ 0.745 µM); in assay [5], above 128 µg/mL; in [6], 1 µg/mL (≈ 0.745 µM); in [7], 1 µg/mL (≈ 0.745 µM); in assay [8], above 128 µg/mL; with Escherichia coli N10 it was above 128 µg/mL. Moreover, the MIC in assay [9] was above 64 µg/mL; in assay [10], 1 µg/mL (≈ 0.745 µM); in assay [11] it was “.25 µg/mL”; in assay [12] it was above 128 µg/mL; in [13], above 128 µg/mL; in [14], 2 µg/mL (≈ 1.49 µM).
In the case of `CN[C@H](CC(C)C)C(=O)N[C@H]1C(=O)N[C@@H](CC(N)=O)C(=O)N[C@H]2C(=O)N[C@H]3C(=O)N[C@H](C(=O)N[C@H](C(=O)O)c4cc(O)cc(O)c4-c4cc3ccc4O)[C@H](O[C@H]3C[C@](C)(N)[C@@H](O)[C@H](C)O3)c3ccc(cc3)Oc3cc2cc(c3O[C@@H]2O[C@H](CO)[C@@H](O)[C@H](O)[C@H]2O[C@H]2C[C@](C)(NCc3ccc(Br)cc3)[C@@H](O)[C@H](C)O2)Oc2ccc(cc2Cl)[C@H]1O` [Compound 18], the ED50 in the assay on Staphylococcus aureus is given as 1.74 mg/kg/2; in the assay with Streptococcus pneumoniae it was 0.25 mg/kg/2; in the assay with Streptococcus pyogenes it was 0.15 mg/kg/2. The MIC result in [1] was “.25 µg/mL”; in [2], 1 µg/mL (≈ 0.579 µM); in assay [3], 1 µg/mL (≈ 0.579 µM); against Enterococcus faecium X66 it was 1 µg/mL (≈ 0.579 µM); against Escherichia coli EC14, above 128 µg/mL; against Escherichia coli TEM, above 128 µg/mL. The MIC entry was “.125 µg/mL” in assay [4]; above 128 µg/mL in [5]; 1 µg/mL (≈ 0.579 µM) in assay [6]; 1 µg/mL (≈ 0.579 µM) in [7]; above 128 µg/mL in [8]; above 128 µg/mL with Escherichia coli N10. In addition, the MIC was above 128 µg/mL in assay [9]; 1 µg/mL (≈ 0.579 µM) in assay [10]; 1 µg/mL (≈ 0.579 µM) in assay [11]; above 128 µg/mL in assay [12]; above 128 µg/mL in assay [13]; “.5 µg/mL” in assay [14].
For `CNC(CC(C)C)C(=O)NC1C(=O)NC(CC(N)=O)C(=O)NC2C(=O)NC3C(=O)NC(C(=O)NC(C(=O)O)c4cc(O)cc(O)c4-c4cc3ccc4O)C(OC3CC(C)(NCc4ccccc4)C(O)C(C)O3)c3ccc(c(Cl)c3)Oc3cc2cc(c3OC2OC(CO)C(O)C(O)C2O)Oc2ccc(cc2Cl)C1O` (stereo not drawn) [Compound 76], the ED50 in the assay with Staphylococcus aureus worked out at 0.87 mg/kg/2; with Streptococcus pneumoniae, 0.42 mg/kg/2; in the assay on Streptococcus pyogenes, 0.62 mg/kg/2. The MIC was 1 µg/mL (≈ 0.65 µM) in assay [1]; “.25 µg/mL” in assay [2]; 1 µg/mL (≈ 0.65 µM) in [3]; 1 µg/mL (≈ 0.65 µM) against Enterococcus faecium X66; above 128 µg/mL in the assay on Escherichia coli EC14; above 128 µg/mL in the assay with Escherichia coli TEM. For the same compound, the MIC entry in [4] is “.5 µg/mL”; in assay [5], above 128 µg/mL; in [6], “.25 µg/mL”; in assay [7], “.25 µg/mL”; in assay [8], above 128 µg/mL; in the assay with Escherichia coli N10, above 128 µg/mL. Moreover, the MIC was above 128 µg/mL in assay [9]; “.25 µg/mL” in assay [10]; 2 µg/mL (≈ 1.3 µM) in assay [11]; above 128 µg/mL in [12]; above 128 µg/mL in [13]; “.5 µg/mL” in assay [14].
